In this assay the target is T1, hIAPP (human islet amyloid polypeptide) (Homo sapiens, UniProt P10997).
T1 sequence (P10997 34-70): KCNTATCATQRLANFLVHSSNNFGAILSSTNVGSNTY
Briefly: isothermal titration calorimetry. The class given is binding. To be noted: hIAPP fibers; no interaction seen by ITC with hIAPP monomers. (Isothermal titration calorimetry measures the heat released or taken up as one component is titrated into another.)

The values that follow come from PMC7641245 (Chemical communications (Cambridge, England), 2020).

In general, Kd refers to a measure of binding affinity in units of concentration. Regarding CurDAc, the Kd is approximately 7 µM.
